# Read-outs that look alike come from different tables or passages of the source.
# How the values were obtained:
# Experiment in all cases: cells
# [1] = test system: A549 cells; conditions: for CC50: read-out: LC50
# Description: (§1) The aim of this assay is to evaluate the in vitro cytostatic (ability to delay or arrest tumor cell growth) or cytotoxic (ability to kill tumor cells) activity of the samples being tested.
# (§2) A colorimetric assay, using sulforhodamine B (SRB) reaction has been adapted to provide a quantitative measurement of cell growth and viability (following the technique described by Skehan et al. J. Natl. Cancer Inst. 1990, 82, 1107-1112). Another colorimetric assay based on 3-(4,5-Dimethylthiazol-2-yl)-2,5-diphenyltetrazolium bromide (MTT) reduction to a purple formazan has been also used to assess the antiproliferative activity (following the technique described by Mosmann et al. J. Immunol. Meth. 1983, 65, 55-63).
# (§3) These forms of assays employ 96-well cell culture microplates following the standards of the American National Standards Institute and the Society for Laboratory Automation and Screening (ANSI SLAS 1-2004 (R2012) Oct. 12, 2011. All the cell lines used in this study were obtained from the American Type Culture Collection (ATCC) and derive from different types of human cancer.
# (§4) A549, HT29, MDA-MB-231 and PSN1 cells were maintained in Dulbecco's Modified Eagle Medium (DMEM) while PC-3 and 22Rv1 cells were maintained in Roswell Park Memorial Institute Medium (RPMI). All cell lines were supplemented with 10% Fetal Bovine Serum (FBS), 2 mM L-glutamine, 100 U/mL penicillin, and 100 […] at 37° C., 5% CO2 and 98% humidity. For the experiments, cells were harvested from subconfluent cultures using trypsinization and resuspended in fresh medium before counting and plating.
# (§5) A549, HT29, MDA-MB-231 and PSN1 cells were seeded in 96 well microtiter plates, at 5000 cells per well in aliquots of 150 μL, and allowed to attach to the plate surface for 18 hours (overnight) in drug free medium. After that, one control (untreated) plate of each cell line was fixed (as described below) and used for time zero reference value. Culture plates were then treated with test compounds (50 μL aliquots of 4× stock solutions in complete culture medium plus 4% DMSO) using ten 2/5 serial dilutions (concentrations ranging from 10 to 0.003 μg/mL) and triplicate cultures (1% final concentration in DMSO). After 72 hours treatment, the antitumor effect was measured by using the SRB methodology: Briefly, cells were washed twice with PBS, fixed for 15 min in 1% glutaraldehyde solution at room temperature, rinsed twice in PBS, and stained in 0.4% SRB solution for 30 min at room temperature. Cells were then rinsed several times with 1% acetic acid solution and air-dried at room temperature.
# (§6) Effects on cell growth and survival were estimated by applying the NCI algorithm (Boyd M R and Paull K D. Drug Dev. Res. 1995, 34, 91-104). The values obtained in triplicate cultures were fitted by nonlinear regression to a four-parameters logistic curve by nonlinear regression analysis.
# [2] = test system: HT29 cells; conditions: for CC50: read-out: LC50; for IC (TGI): read-out: TGI
# Description: as §1, §2, §3, §4, §5, §6
# [3] = test system: PSN1 cells; conditions: Homo sapiens, PSN1, 72 h; for GI50: PSN1, 72 hours treatment, SRB; for CC50: read-out: LC50; for IC (TGI): read-out: TGI
# Description: as §1, §2, §3, §4, §5, §6
# [4] = test system: MDA-MB-231 cells
# Description: as §1, §2, §3, §4, §5, §6
SMILES,"CC50 ([1]; Homo sapiens, A549, 72 h) [nM]","CC50 ([2]; Homo sapiens, HT-29, 72 h) [nM]","IC (TGI) ([2]; Homo sapiens, HT-29, 72 h) [nM]",also measured
C=CCOC(=O)NC[C@H]1Cc2c([nH]c3ccccc23)[C@@]2(CS[C@@H]3c4c(OC(C)=O)c(C)c5c(c4[C@H](COC2=O)N2[C@@H]3[C@H]3c4c(cc(C)c(OC)c4O)C[C@@H]([C@@H]2O)N3C)OCO5)N1 [Compound 13-R],> 115,> 115,–,–
COc1c(C)cc2c(c1O)[C@@H]1[C@@H]3[C@@H]4SC[C@]5(N[C@H](COC(C)=O)Cc6c5[nH]c5ccccc65)C(=O)OC[C@@H](c5c6c(c(C)c(OC(C)=O)c54)OCO6)N3[C@@H](C#N)[C@H](C2)N1C [Compound 3a-S],> 120,> 120,3.23,"GI50 [3]: 2.15 nM; CC50 [3]: 12 nM; IC (TGI) [3]: 3.59 nM; GI50 ([1]; Homo sapiens, A549, 72 h): 3.11 nM; IC (TGI) ([1]; Homo sapiens, A549, 72 h, read-out: TGI): 3.23 nM; GI50 ([2]; Homo sapiens, HT-29, 72 h): 2.99 nM; GI50 ([4]; Homo sapiens, MDA-MB-231, 72 h): 2.87 nM; CC50 ([4]; Homo sapiens, MDA-MB-231, 72 h, read-out: LC50): 4.9 nM; IC (TGI) ([4]; Homo sapiens, MDA-MB-231, 72 h, read-out: TGI): 3.59 nM"
C=CCOC(=O)NC[C@H]1Cc2c([nH]c3ccccc23)[C@@]2(CS[C@@H]3c4c(OC(C)=O)c(C)c5c(c4[C@H](COC2=O)N2[C@@H]3[C@H]3c4c(cc(C)c(OC)c4O)C[C@@H]([C@@H]2C#N)N3C)OCO5)N1 [Compound 10-R],> 114,> 114,> 114,–
COc1c(C)cc2c(c1O)[C@@H]1[C@@H]3[C@@H]4SC[C@]5(N[C@H](CN)Cc6c5[nH]c5ccccc65)C(=O)OC[C@@H](c5c6c(c(C)c(OC(C)=O)c54)OCO6)N3[C@@H](C#N)[C@H](C2)N1C [Compound 11-S],> 126,> 126,> 126,–
COc1c(C)cc2c(c1O)[C@@H]1[C@@H]3[C@@H]4SC[C@]5(N[C@@H](CN)Cc6c5[nH]c5ccccc65)C(=O)OC[C@@H](c5c6c(c(C)c(OC(C)=O)c54)OCO6)N3[C@@H](C#N)[C@H](C2)N1C [Compound 11-R],> 126,> 126,> 126,"GI50 [3]: 1.39 nM; CC50 [3]: > 126 nM; IC (TGI) [3]: 1.89 nM; GI50 ([1]; Homo sapiens, A549, 72 h): 1.77 nM; GI50 ([2]; Homo sapiens, HT-29, 72 h): 1.39 nM"
C=CCOC(=O)NC[C@@H]1Cc2c(oc3ccccc23)[C@@]2(CS[C@@H]3c4c(OC(C)=O)c(C)c5c(c4[C@H](COC2=O)N2[C@@H]3[C@H]3c4c(cc(C)c(OC)c4O)C[C@@H]([C@@H]2C#N)N3C)OCO5)N1 [Compound 45-S],–,> 114,–,–
C=CCOC(=O)NC[C@H]1Cc2c(oc3ccccc23)[C@@]2(CS[C@@H]3c4c(OC(C)=O)c(C)c5c(c4[C@H](COC2=O)N2[C@@H]3[C@H]3c4c(cc(C)c(OC)c4O)C[C@@H]([C@@H]2C#N)N3C)OCO5)N1 [Compound 45-R],–,> 114,–,–
COc1c(C)cc2c(c1O)[C@@H]1[C@@H]3[C@@H]4SC[C@]5(N[C@@H](CN)Cc6c5oc5ccccc65)C(=O)OC[C@@H](c5c6c(c(C)c(OC(C)=O)c54)OCO6)N3[C@@H](C#N)[C@H](C2)N1C [Compound 46-R],–,–,–,"TGI ([1]; A549, 72 hours treatment, SRB): 2.77E−09 Molar; CC50 ([1]; A549, 72 hours treatment, SRB): > 126 nM; TGI ([2]; HT29, 72 hours treatment, SRB): 1.39E−09 Molar; CC50 ([2]; HT29, 72 hours treatment, SRB): > 126 nM; TGI ([4]; MDA-MB-231, 72 hours treatment, SRB): 1.39E−09 Molar"
C=CCOC(=O)NC[C@@H]1Cc2c([nH]c3ccccc23)[C@@]2(CS[C@@H]3c4c(OC(C)=O)c(C)c5c(c4[C@H](COC2=O)N2[C@@H]3[C@H]3c4c(cc(C)c(OC)c4O)C[C@@H]([C@@H]2O)N3C)OCO5)N1 [Compound 13-S],–,> 1150,–,–
COc1c(C)cc2c(c1O)[C@@H]1[C@@H]3[C@@H]4SC[C@]5(N[C@H](CN)Cc6c5oc5ccccc65)C(=O)OC[C@@H](c5c6c(c(C)c(OC(C)=O)c54)OCO6)N3[C@@H](C#N)[C@H](C2)N1C [Compound 46-S],> 126,> 126,–,–

# — patent publication US10538535B2, “Antitumoral compounds” (priority 2017, dated 2020)
